Measured values from US20220047494A1, “ANTIBACTERIAL, DEODORIZATION, EASING OF ACNE AND ATOPY OR SKIN CALMING-FUNCTIONAL COMPOSITION FOR Y-ZONE CLEANLINESS CONTAINING QUERCUS ACUTISSIMA SAP AND ZINC RICINOLEATE” (MEDICLASSIC.CO.LTD, priority 2020, published 2022).

Test system: Staphylococcus epidermidis (KTTC12228)
Assay: Paper disk diffusion antibacterial activity
Format: cell-based
Conditions: paper disk 8 mm, mean ± SD (n = 3)
From the text: In Experimental Example according to the present invention, Propionibacterium acnes (KCTC3314), which is an acne-causing pathogen, Candida albicans (ATCC 10231), which is a yeast that causes inflammatory or bacterial skin diseases, and Staphylococcus epidermidis (KTTC12228), which is gram-positive skin flora, were used. Propionibacterium acnes (KCTC3314) was inoculated into reinforced clostridial (RC) medium, sealed using a […] system in an anaerobic culture tank, and then anaerobically cultured at 37° C. for two days. As an aerobic strain of Candida albicans (ATCC 10231), Sabaurd Dextrose Agar (Difco. USA) was used, inoculated with the bacteria, and cultured in an incubator at 25° C. for 24 hours. As an aerobic strain, Staphylococcus epidermidis (KTTC12228) was inoculated into Mueller-Hinton medium and cultured at 37° C. for 24 hours before use. With respect to the ingredients according to Preparation Example and Comparative Preparation Example, an antibacterial activity against Staphylococcus epidermidis (KTC12228) was measured by using a paper disk diffusion method. Specifically, the evaluation of antibacterial activity against Staphylococcus epidermidis (KTTC12228), which is a secondary acne-causing pathogen, was performed by carrying out a cultivation with Muller-Hinton medium at 37° C. for 24 hours, and evenly spreading a bacterial suspension adjusted at a constant concentration (absorbance of 0.5 at an optical density of 620 nm) on an RC agar plate using a sterile cotton swab. After that, the plate was dried and a paper disk (Φ 8 mm, […]. USA) was placed on the surface of the plate inoculated with the strain, after which samples according to Preparation Example 2 and Comparative Preparation Examples 1 to 4, the positive control tetracycline and a mixed sample of Preparation Examples 1 and 2 (6:4) were absorbed thereon for each concentration. The sample-treated plate was cultured in an anaerobic culture tank for three days using the […] system, after which the antibacterial activity was measured by the size of the inhibition zone around the disk, and the results thereof are shown in table 2 below, respectively.

Compound: CN(C)[C@@H]1C(O)=C(C(N)=O)C(=O)[C@@]2(O)C(O)=C3C(=O)c4c(O)cccc4[C@@](C)(O)[C@H]3C[C@@H]12 [Tetracycline, tetracycline]
- zone of inhibition at 1000 µg/disc (Staphylococcus epidermidis, concentration 1 mg, read-out: Zone of inhibition (diameter in mm)): ~12 mm
- zone of inhibition at 5000 µg/disc (Staphylococcus epidermidis, concentration 5 mg, read-out: Zone of inhibition (diameter in mm)): ~14 mm
- Zone of inhibition (diameter in mm) (concentration 1 mg): 12.82 ± 0.43 mm
- Zone of inhibition (diameter in mm) (concentration 5 mg): 14.92 ± 0.23 mm
